US8382729B2, “Adhesive patch” (Hisamitsu Pharmaceutical Co., Inc., priority 2008, dated 2013)

Test: Measurement of plasma concentration after patch application
Format: in vivo, human
Conditions: for AUC(0-t) / Cmax: male, human, in vivo
Description: The blood was collected at each of 0, 0.5, 1, 2, 3, 4, 6, 8, 10, 12, 18, and 24 hours from the start of the application, and the amount of blood collected each time was 7 mL.
The plasma concentrations of the methyl salicylate, its metabolite salicylic acid, and the 1-menthol were each measured. The measurement was performed by liquid chromatography-mass spectrometry for the salicylic acid and by gas chromatography-mass spectrometry for the methyl salicylate and the 1-menthol. Each of the measurement methods was validated beforehand to confirm measurement reliability. Incidentally, values obtained by subtracting an endogenous concentration before the application (measurement value on 0 hour from the start of the application) from an actual measurement value were used as plasma concentrations during the application. The Cmax and AUC0-24 were calculated according to the changes in the measurement values of these plasma concentrations over time.
Changes in the plasma concentrations of the salicylic acid, the methyl salicylate, and the 1-menthol over time are shown in FIG. 4 to FIG. 6. In addition, the pharmacokinetic parameters (mean, maximum value, and minimum value of Cmax and AUC0-24) of each of the drugs are shown in Table 6. Incidentally, a mean in the figure was an average value from the seven human subjects and represented using a standard deviation (SD). This measurement of the plasma concentrations was performed according to the guideline of FDA (U.S. Food and Drug Administration) (Gaidance for Industry=Bioanalytical Method Validation).

[1] = plasma, 280 cm^2 adhesive patch of Example 1 (methyl salicylate 336 mg, l-menthol 100 mg) applied 8 hours, seven healthy males, baseline-subtracted
[2] = plasma, 280 cm^2 adhesive patch of Example 1 applied 8 hours, seven healthy males

AUC(0-t) (AUC0-24, Maximum Value)	AUC(0-t) (AUC0-24, Minimum Value)	Cmax (Maximum Value)	Cmax (Minimum Value)	Structure (SMILES)	AUC0-24, Mean ± SD [1]	Cmax, Mean ± SD [1]	AUC0-24, Maximum Value [2]	AUC0-24, Minimum Value [2]	Cmax, Maximum Value [2]	Cmax, Minimum Value [2]
				CC(C)[C@@H]1CC[C@@H](C)C[C@H]1O [l-Menthol]	53.6 ± 33.4 ng·h/mL	10.7 ± 6.4 ng/mL	109 ng·h/mL	15.4 ng·h/mL	22.5 ng/mL	4.5 ng/mL
50 ng·h/mL	8.1 ng·h/mL	33 ng/mL	3.5 ng/mL	COC(=O)c1ccccc1O [Methyl Salicylate]						
11800 ng·h/mL	3950 ng·h/mL	1770 ng/mL	705 ng/mL	O=C(O)c1ccccc1O [Salicylic Acid]						
